Data on 14 compounds can be found in US4202902A, “Lipogenesis control by cyclopropane-carboxylic acids, esters and amides” (Shell Oil Company, priority 1979, dated 1980).

Broadly, the inhibition is the drop in the measured response relative to a control, in per cent.

Test [1] concerns swine adipose tissue. As to the kind of experiment: In vitro inhibition of lipogenesis (incorporation of radioactive glucose carbon into lipid) in swine adipose tissue slices. The test is classed as cell-based. The settings on record: Sus scrofa, 100 micrograms per milliliter, 37° C., 2 hours, 5% DMSO, compared to control without test compound, triplicate, read-out: Percent Inhibition of lipogenesis. An excerpt:
The manner in which they cause this effect is not known with certainty; it is believed that they interfere with the synthesis of fatty acids in the tissue. Their effectiveness for this purpose has been ascertained by immersing samples of swine adipose tissue in a liquid medium containing radioactive glucose and the test chemical for a period time, then isolating the lipid from the treated tissue and determining the incorporation of the ratioactive carbon into the lipid by means of scintillation counting techniques. These tests were conducted in swine adipose tissue because in swine the primary site of lipogenesis--i.e., fatty acid synthesis--appears to be adipose tissue.
Described in more detail, the tests were conducted according to the following general procedure.
150 milligrams of slices of swine adipose tissue were incubated at 37° C. for 2 hours with shaking in 3 milliliters of Krebs-Ringer bicarbonate solution containing one-half the usual calcium ion concentration, 60 micromoles of glucose, 0.5 microCurie of glucose-U^14 C, and 100 milliunits of insulin, and 5% dimethyl sulfoxide (DMSO). The test compounds were added as a solution or suspension in DMSO and were present at a concentration of 100 micrograms per milliliter of the incubation mixture.
The incubation was terminated by addition of 0.25 milliliter of 1 N sulfuric acid. The resulting mixture was extracted with a total of 25 milliliters of chloroform:methanol (2:1 v/v). The extracts were washed according to Folch et al. (J. Biol. Chem., 226, 497-509, (1957)), air dried, and counted in a liquid scintillation counter with 15 milliliters of counting fluid (two parts toluene containing 0.4% w/v New England Nuclear Omnifluor: 1 part Triton X-100). The tests were conducted in triplicate and were accompanied by control tests in which all ingredients,proportions and conditions were the same except that no test compound was included. From the data obtained were calculated the percent inhibition of lipid synthesis by the test compound in each case. The data obtained from these tests were set out in Table I, as the percent inhibition of lipogenesis compared to the results obtained in the control tests wherein only the test compound was omitted.

Test [2] concerns swine adipose tissue lipid synthesis. The test can be described thus: In vivo inhibition of swine adipose tissue lipid synthesis (pigs dosed in feed, biopsy slices incubated with radioactive glucose). As to conditions: approx. 25 mg/kg per day for seven days in ration, compared to control animals; for lipogenic rate after 2 weeks: biopsy 1 week after withdrawal of drug; for effect on lipogenesis after 1 week: biopsy after 1 week of drug administration. The protocol: Compounds 1 and 6 were tested to determine the in vivo inhibition of swine adipose tissue lipid synthesis, as follows: pigs weighing about 20 kilograms were administered a fixed drug dose of approximately 25 milligrams of drug per kilogram of animal body weight per day for seven consecutive days. The drug was formulated to contain 10%w active ingredient and was prepared as coarse granules using 4%w plasdene as the granulating agent and lactose as the carrier. […] The daily drug or placebo dose was added to 1.2 kilograms of swine ration; about one-third of the total was fed at 0800, 1200, and 1600 hours. Biopsy samples were obtained from the dorsal subcutaneous adipose tissue (ca 1 gram) in the neck region before drug administration, after 1 week of drug administration, and 1 week after withdrawal of drug. Adipose tissue slices were prepared from the biopsy sample, and in vitro lipogenesis was determined with radioactive glucose as substrate. The incubation was similar to that previously described except that there was no DMSO or test compound in the flasks.

Regarding `CCCCCCCCC[C@@H]1C[C@H]1C(=O)OCC` (relative stereo) [Compound 2, Ethyl 2-nonylcyclopropanecarboxylate (trans-)], the inhibition at 100 µg/mL in test [1] is 27%.

For `CCCCCCCC[C@@H]1C[C@H]1C(N)=O` (relative stereo) [Compound 4, 2-Octylcyclopropanecarboxamide (trans)], the inhibition at 100 µg/mL in test [1] was more than 20%.

For `CCCCCCCC[C@@H]1C[C@H]1C(=O)O` (relative stereo) [Compound 6, 2-octylcyclopropanecarboxylic acid (trans)], the inhibition at 100 µg/mL in test [1] was 77%. For the same compound, in test [2], the “lipogenic rate after 2 weeks” value is given as “significantly reduced the lipogenic rate” and the “effect on lipogenesis after 1 week” value is “neither of the test compounds had significantly affected lipogenesis”.

Turning to `CCCCCCCC[C@@H]1C[C@H]1C(=O)OCC` (relative stereo) [Compound 1, Ethyl 2-octylcyclopropanecarboxylate (trans)], the inhibition at 100 µg/mL in test [1] is more than 20%. In test [2], the “lipogenic rate after 2 weeks” value is recorded as “significantly reduced the lipogenic rate” and the “effect on lipogenesis after 1 week” value is “neither of the test compounds had significantly affected lipogenesis”.

For the compound `O=C(O)[C@@H]1C[C@H]1c1ccccc1` (relative stereo) [Compound 13, 2-phenylcyclopropane-1-carboxylic acid (trans)], the inhibition at 100 µg/mL in test [1] turned out to be 32%.

For the compound `CCCCCCCCCCCCCC[C@@H]1C[C@H]1C(=O)O` (relative stereo) [Compound 7, 2-tetradecylcyclopropanecarboxylic acid (trans)], the inhibition at 100 µg/mL in test [1] is 46%.

Consider `CCCCC1CC1C(=O)OCC` (stereo not drawn) [Compound 3, Ethyl 2-butylcyclopropanecarboxylate], for which the inhibition at 100 µg/mL in test [1] amounted to 24%.

Take `N#CC1(C(=O)O)CC1c1ccccc1` (stereo not drawn) [Compound 11, 1-Cyano-2-phenylcyclopropanecarboxylic acid]: the inhibition at 100 µg/mL in test [1] came to 49%.

Turning to `CCCCCCCCC[C@@H]1C[C@H]1C(=O)O` (relative stereo) [Compound 5, 2-Nonylcyclopropanecarboxylic acid (trans)], the inhibition at 100 µg/mL in test [1] amounted to 79%.

Regarding `CCCCCCC1CC1(C#N)C(=O)OCC` (stereo not drawn) [Compound 10, Ethyl 1-cyano-2-hexylcyclopropanecarboxylate (trans-)], in test [1], the inhibition at 100 µg/mL was determined as 44%.

As to `CCOC(=O)C1CC1COC(C)=O` (stereo not drawn) [Compound 12, Ethyl 2-((acetyloxy)methyl)cyclopropanecarboxylate], the inhibition at 100 µg/mL in test [1] is 31%.

For the compound `CCCCCCCCC[C@@H]1C[C@H]1C(N)=O` (relative stereo) [Compound 8, 2-Nonylcyclopropanecarboxycarboxamide (trans)], the inhibition at 100 µg/mL in test [1] is 34%.

In the case of `CCOC(=O)C1CC1(C#N)c1ccccc1` (stereo not drawn) [Compound 14, Ethyl 2-cyano-2-phenylcyclopropanecarboxylate], the inhibition at 100 µg/mL in test [1] came out at 53%.

Consider `CCOC(=O)C1(C#N)CC1c1ccccc1` (stereo not drawn) [Compound 9, Ethyl 1-cyano-2-phenylcyclopropanecarboxylate], for which the inhibition at 100 µg/mL in test [1] is 57%.
